Reference: patent US6602896B1, “p38MAPK inhibitor and uses thereof” (The Board of Trustees of the University of Arkansas, priority 1999, dated 2003)

Key:
LDL receptor expression [1] = assay: Northern blotting of LDL receptor mRNA in HepG2 cells; assay type: cell-based, human; conditions: HepG2 cells; for effect on SB202190-induced LDL receptor expression: inhibitor added 30 min before SB202190 (2.5 μM, 4 h); for induction of LDL receptor expression (Northern blotting): inhibitor alone, 0.5% FBS
Description: 5×10^5 cells were plated on day 0. On day 2, cells were refed with fresh medium. On day. 4, cells were either left untreated (0) or treated for the indicated times with SB202190 (2.5 μM) in medium containing 0.5% FBS. Total RNA was isolated and subjected to Northern blotting to determine amounts of LDL receptor, squalene synthase (SS) genes, and actin mRNAs. Autoradiographs were quantitated densitometrically. LDL receptor mRNA levels were normalized to actin mRNA levels. In the bottom panel, results are expressed as the fold induction by SB 202190 as compared with uninduced cells (set at 1). Values obtained are the averages of three separate experiments, with the standard deviations shown.
HepG2 cells were grown as described in FIG. 1. On day 4, medium was changed to either 10% LPDS alone or 10% LPDS supplemented with 25-hydroxycholesterol (2 μg/ml) and cholesterol (10 μg/ml), and after 2 hours, cells were treated with indicated concentrations of SB202190 for an additional 4 hours. Levels of LDL receptor and SS mRNAs were determined by Northern analysis and densitometry as described previously. RNA levels were normalized by comparison with levels of actin. Values obtained from cells cultured in the absence of sterols and SB202190 were set at 1. Values shown are the average of two different experiments.
Total RNA was subjected to Northern blot analysis, and the filter was hybridized with a ^32P-labeled LDL receptor probe. Values shown are the averages of two different experiments. […] Values obtained from the control cells grown in the absence of SB202190 or PD98059 were arbitrarily set at 1.
HepG2 cells were grown as described in FIG. 1. On day 4, cells cultured for 1 h in 0.5% FBS containing different amounts of cycloheximide (1 μg/ml, 2 μg/ml, and 5 μg/ml) were then incubated with SB202190 (2.5 μM) for an additional 4 h. LDL receptor and actin mRNA levels were analyzed by Northern blotting of total RNA. Values obtained from cells with no additions were arbitrarily set at 1. […] Results shown are representative of one experiment.
In FIG. 8A, HepG2 cells were pretreated for 30 minutes with the indicated concentration of the above inhibitors and then treated with […] SB202190 for an additional 4 hours. Total RNA was subjected to Northern blotting for measurement of LDL receptor mRNA levels.
(§1) Human hepatoma cell line HepG2 and its derivative HepG2-ΔRaf-1:ER cell line that stably expresses the ΔRaf-1:ER chimera were maintained as monolayer cultures in a humidified 5% CO2 atmosphere at 37° C. in Eagle's minimum essential medium (EMEM) (Bio Whittaker, Md.) supplemented with 10% fetal bovine serum (FBS) (Life Technologies Inc.), 2 mM L-glutamine, 20 units/ml penicillin and 20 μg/ml streptomycin sulphate.
Total RNA was isolated using TRIzol, and Northern blotting was done essentially as described earlier (43, 44). Briefly, 20 μg total cellular RNA was fractionated on 1% formaldehyde agarose gel and transferred to Zeta Probe membrane by capillary blotting. RNA blots were hybridized with LDL receptor and squalene synthase specific single-stranded M13 probes labeled with [α-^32P ]dCTP. Hybridized filters were washed and exposed to Kodak X-ray film. The relative intensities of specific bands were determined densitometrically within the linear range of the film on a model 300A laser densitometer (Molecular Dyanamics, Calif.) with Image Quant software. LDL receptor mRNA was normalized to squalene synthase (SS) (included in this study) or to α-actin (data not shown) mRNA level, and data for each point were plotted as the percentage of LDL receptor mRNA as compared to controls. […]

p38^MAPK [2] = assay: p38MAPK activation by stress-inducers in HepG2-ΔRaf-1:ER cells; assay type: cell-based, human; conditions: 1 μM ICI 182,780 1.5 h, then anisomycin (50 ng/ml) or IL-1β (5 ng/ml) 30 min
Description: (§2) Cells were either left untreated or stimulated with 1 μM ICI 182,780 for 1.5 h, and then treated with either anisomycin (50 ng/ml) or IL-1β(5 ng/ml) for 30 min. Cells were then lysed in SDS sample buffer, and equal amounts of whole cell lysates were separated by SDS-PAGE in 10% gels. Activated MAPKs levels were analyzed by blotting using anti-phospho-p42/44^MAPK, and anti-phospho-p38^MAPK. Protein levels were analyzed by using phosphorylation-independent anti-p42/44^MAPK following electrotransfer of total proteins onto nitrocellulose. Similar results were obtained in three separate experiments. […]
(§3) Proteins were fractionated by SDS-PAGE with an 10% acrylamide separation gel, and the separated proteins were transferred to nitrocellulose, and processed as described previously (43, 44). […] After further washing in Tris/NaCl/Tween-20, membranes were incubated for 1 h with horseradish peroxidase-linked anti-IgG secondary antibody (Bio-Rad, diluted 1:5000), and immunoreactive proteins were detected by ECL as described by the supplier. Quantitative analyses of protein levels were performed by densitometric scanning of the autoradiograms, and are representative of 3 or more independent experiments.
(§4) Whether inhibition or activation of p42/44^MAPK regulates p38^MAPK activation by stress-inducers was determined next. […]

p42/44^MAPK [3] = assay: p42/44MAPK activation in HepG2-ΔRaf-1:ER cells; assay type: cell-based, human; conditions: 1 μM ICI 182,780
Description: as §2, §3, §4

MEK-1/2 = assay: Immunoblot of phospho-MEK-1/2 in HepG2 cells; assay type: cell-based, human; conditions: 1 μM staurosporine 30 min, then SB202190 (2.5 μM) 4 h
Description: (§5) 2×10^5 cells were grown and treated as described in FIG. 1. After the indicated times, equal amounts of cell lysates were blotted with anti-phospho-p42/44^MAPK antibody, phosphorylation-independent p42/44^MAPK antibody, anti-phospho p46/54^JNK antibody, anti-phospho-MEK-1/2, or phosphorylation-independent MKP-1.
HepG2 cells were cultured in the absence or presence of 1 μM staurosporine or 5 μM PD98059 for 30 min. SB202190 (2.5 μM) was then added to the cells for 4 h, cell lysate was subjected to immunoblotting to measure the phosphorylation levels of p42/44^MAPK and MEK-1/2. […]
as §3

p42/44^MAPK [4] = assay: Immunoblot of phospho-p42/44MAPK in HepG2 cells; assay type: cell-based, human; conditions: inhibitor added 30 min before SB202190 (2.5 μM, 4 h)
Description: as §5
HepG2 cells were cultured in the absence or presence of 1 μM staurosporine or 5 μM PD98059 for 30 min. SB202190 (2.5 μM) was then added to the cells for 4 h, cell lysate was subjected to immunoblotting to measure the phosphorylation levels of p42/44^MAPK and MEK-1/2.
as §1
Proteins were fractionated by SDS-PAGE with an 10% acrylamide separation gel, and the separated proteins were transferred to nitrocellulose, and processed as described previously (43, 44). Briefly, membranes were incubated in 20 mM Tris-HCl, pH 7.6, 137 mM NaCl, 0.2% v/v Tween-20 (Tris/NaCl/Tween-20) with 5% w/v non-fat dried milk for 1 h, washed in Tris/NaCl/Tween-20 (3×5 min), and incubated for 1 h with primary antibody in Tris/NaCl/Tween-20 containing 1% milk at room temperature for non phospho-specific antibodies and overnight at 4° C. for phospho-specific antibodies. The following dilutions were used for individual antibodies against different proteins: p42/44^MAPK (1:1600); phosphop-42/44^MAPK (1:1000); phosphop-46/54^JNK (1:1000); phospho-p38^MAPK (1:1600); phospho-MEK-1/2 (1:1000); MKP-1 (1:1500). After further washing in Tris/NaCl/Tween-20, membranes were incubated for 1 h with horseradish peroxidase-linked anti-IgG secondary antibody (Bio-Rad, diluted 1:5000), and immunoreactive proteins were detected by ECL as described by the supplier. Quantitative analyses of protein levels were performed by densitometric scanning of the autoradiograms, and are representative of 3 or more independent experiments.
HepG2 cells were incubated with SB202190, and the activity of p42/44^MAPK and p46/54^JNK was determined by immunoblot analysis with antibodies that recognized the activated phosphorylated forms of these kinases in cell extracts obtained at different times.

p38^MAPK [5] = conditions: concentrations that completely blocked p42/44MAPK activation by MEK-1/2; cited from earlier work
LDL receptor expression [6] = assay: Northern blotting of LDL receptor mRNA in HeLa cells; assay type: cell-based; conditions: PD98059 (5 μM) added 30 min before SB202190 (2.5 μM) 4 h
Description: PD98059 was added 30 min prior to addition of SB202190. After the indicated times, total RNA was isolated and subjected to Northern blotting. […] Total RNA was isolated using TRIzol, and Northern blotting was done essentially as described earlier (43, 44). Briefly, 20 μg total cellular RNA was fractionated on 1% formaldehyde agarose gel and transferred to Zeta Probe membrane by capillary blotting. RNA blots were hybridized with LDL receptor and squalene synthase specific single-stranded M13 probes labeled with [α-^32P ]dCTP. Hybridized filters were washed and exposed to Kodak X-ray film. The relative intensities of specific bands were determined densitometrically within the linear range of the film on a model 300A laser densitometer (Molecular […], Calif.) with Image Quant software. LDL receptor mRNA was normalized to squalene synthase (SS) (included in this study) or to α-actin (data not shown) mRNA level, and data for each point were plotted as the percentage of LDL receptor mRNA as compared to controls.

other MAPKs = assay: Activity of other MAPKs on inhibition of p42/44MAPK; assay type: cell-based; conditions: inhibition of p42/44MAPK with PD98059; data not shown
[7] = system: p38^MAPK α- and β-isoforms; conditions: cited from earlier work

## C[C@@H]1C[C@@H]([C@H](O)CC2CC(=O)NC(=O)C2)C(=O)[C@@H](C)C1 [cycloheximide]
LDL receptor expression [1]; cycloheximide 1, 2, 5 μg/ml for 1 h, then SB202190 (2.5 μM) 4 h
  effect of inhibition of translation on SB202190-induced LDL receptor expression: no effect on LDL receptor expression

## C[C@]12CC[C@@H]3c4ccc(O)cc4C[C@@H](CCCCCCCCC[S+]([O-])CCCC(F)(F)C(F)(F)F)[C@H]3[C@@H]1CC[C@@H]2O (stereo partly shown) [ICI 182780]
p38^MAPK [2]
  effect on p38MAPK activation by anisomycin or IL-1β: no significant effects
p42/44^MAPK [3]
  stimulation of p42/44MAPK: stimulated p42/44^MAPK within minutes

## CN[C@@H]1C[C@H]2O[C@@](C)([C@@H]1OC)n1c3ccccc3c3c4c(c5c6ccccc6n2c5c31)C(=O)NC4 [staurosporine]
LDL receptor expression [1]
  effect on SB202190-induced LDL receptor expression: completely prevented
MEK-1/2
  effect on SB202190-induced MEK-1/2 activation: blocked
p42/44^MAPK [4]
  effect on SB202190-induced p42/44MAPK phosphorylation/activation: blocked

## Cn1c2ccccc2c2c3c(c4c5ccccc5n(CCC#N)c4c21)CNC3=O [Go6976]
LDL receptor expression [1]
  effect on SB202190-induced LDL receptor expression: has no effect

## CCc1nc(-c2ccc(OC)cc2)[nH]c1-c1ccncc1 [SB202474]
LDL receptor expression [1]
  induction of LDL receptor expression (Northern blotting): did not induce LDL receptor expression

## COc1cccc(-c2cc(=O)c3ccccc3o2)c1N [PD98059, 2-(2′-amino-3′-methoxyphenyl) oxanaphthalen-4-one]
LDL receptor expression [1]
  effect on SB202190-induced LDL receptor expression: inhibited
p42/44^MAPK [4]
  effect on SB202190-induced p42/44MAPK phosphorylation/activation: inhibited
p38^MAPK [5]
  effect on p38MAPK activation in response to IL-1β or TNF: failed to block p38^MAPK activation
LDL receptor expression [6]
  effect on SB202190-induced LDL receptor expression in HeLa cells: blocked SB202190-induced LDL receptor expression
Other MAPKs
  effect on activity of other MAPKs: has no effect on activity of other MAPKs

## COc1ccc2c(c1)c(CC(=O)O)c(C)n2C(=O)c1ccc(Cl)cc1 [indomethacin]
LDL receptor expression [1]; 10 μM indomethacin
  effect on LDL receptor expression: did not significantly alter LDL receptor expression

## CN(C)CCCn1cc(C2=C(c3c[nH]c4ccccc34)C(=O)NC2=O)c2ccccc21 [Bis I]
LDL receptor expression [1]
  effect on SB202190-induced LDL receptor expression: has no effect

## C[S+]([O-])c1ccc(-c2nc(-c3ccc(F)cc3)c(-c3ccncc3)[nH]2)cc1 (stereo not shown) [SB203580, 4-(4-Fluorophenyl)-2-(4-methylsulfinylphenyl)-5-(4-pyridyl) 1H-imidazole]
LDL receptor expression [1]
  most effective concentration for LDL receptor induction: 10 µM
  induction of LDL receptor expression (Northern blotting): also induced LDL receptor expression
[7]
  inhibition of p38MAPK α- and β-isoforms: selectively inhibit both p38^MAPK α- and β-isoforms

## calphostin C
LDL receptor expression [1]
  effect on SB202190-induced LDL receptor expression: has no effect
